Literature values in US11185497B2, “Intranasal delivery of dihydroergotamine by precision olfactory device” (Impel Neuropharma, Inc., priority 2018, dated 2021).

Settings: in vivo

Compound: CN1C[C@H](C(=O)N[C@]2(C)O[C@@]3(O)[C@@H]4CCCN4C(=O)[C@H](Cc4ccccc4)N3C2=O)C[C@@H]2c3cccc4[nH]cc(c34)C[C@H]21 [DHE, Dihydroergotamine]
- oral bioavailability: poor
